According to ChEMBL document CHEMBL1130382, “Inhibition of thyroid hormone uptake by calcium antagonists of the dihydropyridine class” (J Med Chem, 1997):

Assays:
[1] = Partition coefficient (logP); details: octanol/water
[2] = test system: HepG2; assay: Inhibitory effect on L-triiodothyronine (L-T3) uptake by human HepG2 hepatoma cells at an application dose 10E-5 M; type: functional
[3] = test system: HepG2; assay: Compound tested for inhibitory effect on L-triiodothyronine (L-T3) uptake by human HepG2 hepatoma cells at an application dose 10E-5 (M); type: functional

Compound	logP [1]	I [2]	I [3]
CCOC(=O)C1=C(C)N=C(C)/C(=C(/O)OCC)C1c1ccc(I)cc1 (stereo not given)	4.7	26.8%	
COC(=O)C1=C(C)NC(C)=C(C(=O)OC)C1c1ccccc1[N+](=O)[O-] [NIFEDIPINE]		80.5%	
CC1=C(C#N)C(c2cccc([N+](=O)[O-])c2)C(C#N)=C(C)N1	1.45	53.8%	
CCOC(=O)C1=C(C)N=C(C)/C(=C(/O)OCC)C1c1cccc(I)c1 (stereo not given)	4.48		33.2%
CCO/C(O)=C1\C(C)=NC(C)=C(C(=O)OC)C1c1cccc(C(F)(F)F)c1 (stereo not given)	3.9	19.6%	
CCOC(=O)C1=C(C)NC(C)=C(C(=O)OC)C1c1cccc([N+](=O)[O-])c1 (stereo not given) [NITRENDIPINE]		81.8%	
CCOC(=O)C1=C(C)N=C(C)/C(=C(/O)OCC)C1c1cccc(OC)c1 (stereo not given)	3.22	17.5%	
CCOC(=O)C1=C(C)N=C(C)/C(=C(/O)OCC)C1c1cccc(C)c1 (stereo not given)	3.76	29.7%	
CCOC(=O)c1c(C)nc(C)c(C(=O)OCC)c1-c1cccc([N+](=O)[O-])c1	3.1	28.4%	
CCOC(=O)C1=C(C)NC(C)=C(C(=O)OCC)C1c1cccc(O)c1	4.03	21.6%	

The next lines start with results.

logP [1]	Compound	I [2]	I [3]
3.82	CCO/C(O)=C1\C(C)=NC(C)=C(C(=O)OC)C1c1ccccc1C(F)(F)F (stereo not given)	23.1%	
3.08	O=C(O)c1ccccc1Nc1ccccc1 [FENAMIC ACID]	20.5%	
2.94	c1ccc(Nc2ccccc2)cc1 [DIPHENYLAMINE]	20.9%	
2.51	CCO/C(O)=C1\C(C)=NC(C)=C(C(=O)OC)C1c1ccccc1[N+](=O)[O-] (stereo not given)	41.4%	
3.6	CCO/C(O)=C1\C(C)=NC(C)=C(C(=O)OC)C1c1ccc([N+](=O)[O-])cc1 (stereo not given)	85.8%	
3.83	c1ccc(Oc2ccccc2)cc1 [DIPHENYLETHER]	22%	
